Assay results published in patent US8536168B2 (Novartis AG, priority 2007, dated 2013).
Read-outs that look alike come from different tables or passages of the source.

Experiments:
[1] = target: mouse Smoothened receptor (Mus musculus, UniProt P56726); experiment: Smo binding assay, displacement of radio-labeled smoothened agonist, filter binding format (mouse); conditions: displacement of small molecule agonist of Smoothened, read-out: Mouse Smo bdg., IC50
Excerpt: A Smo binding assay was developed using radio-labeled smoothened agonist for compound competition.

[2] = target: human Smoothened receptor (Homo sapiens, UniProt Q99835); experiment: Smo binding assay, displacement of radio-labeled smoothened agonist, filter binding format (human); conditions: displacement of small molecule agonist of Smoothened, read-out: Human Smo bdg., IC50
human Smoothened receptor, sequence (Q99835 28-787): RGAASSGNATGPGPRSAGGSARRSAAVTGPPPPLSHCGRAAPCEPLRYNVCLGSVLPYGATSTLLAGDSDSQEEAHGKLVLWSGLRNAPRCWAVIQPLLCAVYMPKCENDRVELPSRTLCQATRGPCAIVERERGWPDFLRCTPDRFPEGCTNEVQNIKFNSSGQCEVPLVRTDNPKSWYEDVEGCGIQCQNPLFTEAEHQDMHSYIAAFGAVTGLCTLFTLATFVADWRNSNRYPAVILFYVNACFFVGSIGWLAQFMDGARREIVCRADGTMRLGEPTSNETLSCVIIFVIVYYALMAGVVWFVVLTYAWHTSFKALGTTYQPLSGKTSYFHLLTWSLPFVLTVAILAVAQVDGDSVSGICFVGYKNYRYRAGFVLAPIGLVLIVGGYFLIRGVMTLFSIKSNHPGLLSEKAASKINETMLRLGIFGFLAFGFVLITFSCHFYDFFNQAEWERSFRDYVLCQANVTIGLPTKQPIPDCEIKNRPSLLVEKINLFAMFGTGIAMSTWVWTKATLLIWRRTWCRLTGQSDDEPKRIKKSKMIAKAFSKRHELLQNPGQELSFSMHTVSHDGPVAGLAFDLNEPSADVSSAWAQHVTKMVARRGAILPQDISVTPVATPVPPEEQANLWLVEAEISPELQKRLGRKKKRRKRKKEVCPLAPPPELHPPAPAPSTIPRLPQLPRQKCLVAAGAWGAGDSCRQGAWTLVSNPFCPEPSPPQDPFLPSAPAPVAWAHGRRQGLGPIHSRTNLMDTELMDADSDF
Excerpt: A Smo binding assay was developed using radio-labeled smoothened agonist for compound competition. Table 9 lists the IC50 for displacement of a small molecule agonist of Smoothened determined in a filter binding format for the mouse and human Smoothened receptor.

[3] = tested on: Gli-luciferase activity; experiment: Reporter gene assay (RGA) in TMHh12 cells, antagonism of Gli-luciferase activity in the presence of a Smo agonist; format: cell-based
Description: Activity of the compounds was evaluated using a reporter gene assay (RGA) in TMHh12 cells.

[4] = 25 nM small molecule Smo agonist, read-out: RGA (25 nM Smo agonist) IC50
[5] = read-out: RGA (1 nM Smo agonist) IC50, 1 nM small molecule Smo agonist

mouse Smoothened receptor, sequence (P56726 33-793): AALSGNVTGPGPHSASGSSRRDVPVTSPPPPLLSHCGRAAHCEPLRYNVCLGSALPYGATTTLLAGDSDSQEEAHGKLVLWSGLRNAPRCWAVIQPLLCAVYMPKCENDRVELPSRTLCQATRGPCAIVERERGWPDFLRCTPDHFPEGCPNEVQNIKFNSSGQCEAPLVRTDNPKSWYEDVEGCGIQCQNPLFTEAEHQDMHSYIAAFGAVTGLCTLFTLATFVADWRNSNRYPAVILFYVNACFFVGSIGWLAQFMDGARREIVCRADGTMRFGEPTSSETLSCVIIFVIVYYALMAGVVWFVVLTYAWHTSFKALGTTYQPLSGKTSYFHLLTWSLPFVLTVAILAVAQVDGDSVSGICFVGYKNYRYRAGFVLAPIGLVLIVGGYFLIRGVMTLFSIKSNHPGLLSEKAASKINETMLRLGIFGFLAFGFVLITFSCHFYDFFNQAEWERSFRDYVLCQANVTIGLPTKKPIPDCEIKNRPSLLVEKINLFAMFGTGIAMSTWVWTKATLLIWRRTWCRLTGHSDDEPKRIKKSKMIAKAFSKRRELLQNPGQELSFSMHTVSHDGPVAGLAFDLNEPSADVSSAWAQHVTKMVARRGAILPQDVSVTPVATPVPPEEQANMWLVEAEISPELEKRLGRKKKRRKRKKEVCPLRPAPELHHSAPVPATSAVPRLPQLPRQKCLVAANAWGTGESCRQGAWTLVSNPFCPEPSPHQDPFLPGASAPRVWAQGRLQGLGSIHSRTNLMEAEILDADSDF

SMILES	IC50 [1] [nM]	IC50 [2] [nM]	IC50 [3, 4] [nM]	IC50 [3, 5] [nM]
N#Cc1ccc(N2CCC(c3cn(Cc4ccc(F)cc4)c4ccccc34)CC2)nc1 [Example 98]	1000 to 10000	1000 to 10000	1000 to 10000	100 to 1000
c1ccc(Cc2nnc(N3CCN(c4ccccc4)CC3)c3ccccc23)cc1 [Example 106]	1000 to 10000	1000 to 10000	1000 to 10000	100 to 1000
COc1ccc(CN2Cc3c(Cc4ccccc4)nnc(N4CCN(c5ccc(C(F)(F)F)cn5)CC4)c3C2)cc1 [Example 243, 1-benzyl-6-(4-methoxybenzyl)-4-(4-(5-(trifluoromethyl)pyridin-2-yl)piperazin-1-yl)-6,7-dihydro-5H-pyrrolo[3,4-d]pyridazine]	100 to 1000	1000 to 10000	1000 to 10000	1000 to 10000
C[C@@H]1CN(c2ccc(C#N)cn2)CCN1c1nnc(Cc2ccccc2)c2ccccc12 [Example 118]	100 to 1000	100 to 1000	1000 to 10000	100 to 1000
Fc1cc(Cl)cnc1N1CCN(c2nnc(Cc3ccccc3)c3ccccc23)CC1 [Example 49]	100 to 1000	100 to 1000	100 to 1000	< 100
O=C(c1cccc(F)c1)N1CCC(c2cn(Cc3ccc(F)cc3)c3ccccc23)CC1 [Example 101]	100 to 1000	100 to 1000	10000 to 40000	100 to 1000
c1ccc(Cc2nnc(N3CCN(c4ccc(CNC5COC5)cn4)CC3)c3ccccc23)cc1 [Example 230]	100 to 1000	100 to 1000	100 to 1000	< 100
CN(C)C(=O)c1cnc(N2CCN(c3nnc(Cc4ccccc4)c4ccccc34)CC2)nc1 [Example 54aa]	100 to 1000	100 to 1000	100 to 1000	< 100
N#Cc1ccc(N2CCN(c3cnc(Cc4cccc(C(F)(F)F)c4)c4ccccc34)CC2)nc1 [Example 82]	1000 to 10000	1000 to 10000	10000 to 40000	1000 to 10000
CP(C)(=O)c1ccc(N2CCN(c3nnc(Cc4ccccc4)c4ccccc34)CC2)nc1 [Example 107]	100 to 1000	100 to 1000	100 to 1000	< 100
Fc1ccc(Cn2cc(C3CCN(c4ccc(C(F)(F)F)cn4)CC3)c3ccccc32)cc1 [Example 95, 4-[1-(4-Fluoro-benzyl)-1H-indol-3-yl)-5′-trifluoromethyl-3,4,5,6-tetrahydro-2H-[1,2]-bipyridinyl]	100 to 1000	100 to 1000	1000 to 10000	< 100
O=C(NC1CN(C(=O)OCc2ccccc2)C1)c1ccc(N2CCN(c3nnc(Cc4ccccc4)c4ccccc34)CC2)nc1 [Example 54x]	100 to 1000	< 100	100 to 1000	100 to 1000
N#Cc1ccc(N2CCN(c3nnc(Cc4ccccc4Cl)c4ccccc34)CC2)nc1 [Example 174]	100 to 1000	100 to 1000	1000 to 10000	< 100
O=S(=O)(c1ccc(N2CCN(c3nnc(Cc4ccccc4)c4ccccc34)CC2)nc1)N1CCCC1 [Example 133]	100 to 1000	100 to 1000	100 to 1000	< 100

More lines, now with the values ahead:

IC50 [1] [nM]	IC50 [2] [nM]	IC50 [3, 4] [nM]	IC50 [3, 5] [nM]	SMILES
< 100	< 100	100 to 1000	< 100	CN(C)CC(C)(O)c1cnc(N2CCN(c3nnc(Cc4ccccc4)c4ccccc34)CC2)cn1 (stereo not shown) [Example 169, 2-[4-(4-Benzyl-phthalazin-1-yl)-3,4,5,6-tetrahydro-2H-[1,2′]bipyrazinyl-5′-yl]-1-dimethylamino-propan-2-ol]
100 to 1000	1000 to 10000	1000 to 10000	100 to 1000	NCc1ccc(C2CCN(c3nnc(Cc4ccccc4)c4ccccc34)CC2)cc1 [Example 125, 4-[1-(4-Benzyl-phthalazine-1-yl)-piperidine-4-yl]-benzylamine]
< 100	100 to 1000	100 to 1000	< 100	CC(C)(O)c1ccc(N2CCN(c3nnc(Cc4ccccc4)c4ccccc34)CC2)nn1 [Example 152]
< 100	< 100	100 to 1000	100 to 1000	FC(F)(F)c1ccc(N2CCN(c3nnc(Cc4ccccc4)c4c3C=CCC4)CC2)nc1 [Example 240, 4-Benzyl-1-(4-(5-(trifluoromethyl)pyridin-2-yl)piperazin-1-yl)-5,6-dihydrophthalazine]
< 100	< 100	< 100	< 100	C[C@H]1CN(c2ccc(C(C)(C)O)cn2)CCN1c1nnc(Cc2ccc(F)cc2F)c2ccccc12 [Example 195]
< 100	100 to 1000	1000 to 10000	< 100	N#Cc1ccc(N2CCN(c3nnc(Cc4ccccc4)c4ccccc34)CC2)nc1 [Example 1, 6-[4-(4-Benzyl-phthalazin-1-yl)-piperazin-1-yl]-nicotinonitrile]
< 100	100 to 1000	1000 to 10000	100 to 1000	N#Cc1ccc(N2CCN(c3nnc(CCc4ccccc4)c4ccccc34)CC2)nc1 [Example 61]
< 100	< 100	100 to 1000	< 100	OC(c1ccc(N2CCN(c3nnc(Cc4ccccc4)c4ccccc34)CC2)nc1)C1CCCC1 (stereo not shown) [Example 221]
